# Values quoted from earlier work in patent US20040115181A1, “Composition for transmucosal adminstration containing conenzyme q as the active ingredient” (priority 2001, published 2004).
# Test system: rats
# Details: continuously administered for 52 weeks, 1.2 g/kg/day, J. Agric. Food Chem., 1999, Vol. 47, P3756-3763
compound,measurement,value
COC1=C(OC)C(=O)C(C/C=C(\C)CC/C=C(\C)CC/C=C(\C)CC/C=C(\C)CC/C=C(\C)CC/C=C(\C)CC/C=C(\C)CC/C=C(\C)CC/C=C(\C)CCC=C(C)C)=C(C)C1=O [coenzyme Q10],Toxicity in safety test,no toxicity is observed
